# Data reported in patent US10577406B2, “FKBP-L polypeptides and uses in angiogenesis-mediated disorders” (ALMAC DISCOVERY LIMITED, priority 2006, dated 2020).
# Ends that are not written are not given here.
# Key:
# [1] = test system: HMEC-1; assay: in vitro migration assay (wound closure / wound scrape), recombinant protein or peptides added to medium; format: cell-based, Human; settings: wound scrape
# Procedure: (§1) The in vitro migration assay used in these studies is a modified version of the method described by Ashton et al (1999). HMEC-1 were plated into individual chambers on a glass slide and grown to 90% confluence overnight. The medium was removed and the monolayer wounded. The monolayer was re-supplemented with fresh medium and the required volume of recombinant full length his-tagged FKBP-L protein (SEQ ID NO: 1) was added to give the required final concentration.
# The monolayers were incubated for 7 hours after exposure to recombinant FKBP-L protein and then fixed in 4% PBS buffered paraformaldehyde. The extent of “wound” closure was blindly assessed microscopically by an independent investigator and quantified using a calibrated eyepiece graticule (1 mm/100 μm graduation) at 20× magnification (Olympus BX 50). The extent of closure in the FKBP-L treated slides was compared to time matched sham treated controls and the % inhibition of wound closure compared to time matched controls calculated.
# The following studies were performed to determine the effect of a full length His-tagged recombinant FKBP-L protein on the wound closure assay measured as a function of time. Again, the in vitro migration assay used in these studies is a modified version of the method described by Ashton et al (1999). HMEC-1 were plated into individual chambers on a glass slide and grown to 90% confluence overnight. The medium was removed and the monolayer wounded. The monolayer was re-supplemented with fresh medium and the required volume of full length his-tagged recombinant FKBP-L (i.e., SEQ ID NO: 1) added to give the required final concentration 750 ngml^−1.
# Slides were removed at fixed time points until complete closure of the wound, then fixed in 4% PBS buffered paraformaldehyde. The extent of “wound” closure was blindly assessed microscopically by an independent investigator and quantified using a calibrated eyepiece graticule (1 mm/100 μm graduation) at 20× magnification (Olympus BX 50). The extent of closure in the FKBP-L treated slides was compared to time matched sham treated controls and the % inhibition of wound closure compared to time matched controls calculated.
# as §1, with “al. (1999) see supra.” for “al (1999).”, “the following peptides” for “recombinant full length his-tagged FKBP-L protein (SEQ ID NO: 1)”, “achieve a dose range from 10^−14-10^−6 M.” for “give the required final concentration.”
# The monolayers were incubated for 7 h and then fixed in 4% PBS buffered paraformaldehyde. The extent of “wound” closure was blindly assessed microscopically by an independent investigator and quantified using a calibrated eyepiece graticule (1 mm/100 μm graduation) at 20× magnification (Olympus BX 50). The extent of closure in the FKBP-L treated slides was compared to time matched sham treated controls and the % inhibition of wound closure compared to time matched controls calculated.
# The in vitro migration assay used in these studies is a modified version of the method described by Ashton et al. (1999) see supra. HMEC-1 were plated into individual chambers on a glass slide and grown to 90% confluence overnight. The medium was removed and the monolayers wounded. The monolayer was re-supplemented with fresh medium and the required volume of each peptide (i.e., peptides 1-17, SEQ ID NOS: 12-28; Table 4 below) was added to give the required final concentration (10^−14-10^−6 M).
# The monolayers were incubated for 24 h and then fixed in 4% PBS buffered paraformaldehyde. The extent of “wound” closure was blindly assessed microscopically by an independent investigator and quantified using a calibrated eyepiece graticule (1 mm/100 μm graduation) at 20× magnification (Olympus BX 50). […]
# [2] = test system: L132 cells; assay: cDNA microarray analysis of gene expression after FKBP-L antisense; format: cell-based; settings: 8 h after exposure, vs lipofectin only
# Procedure: Total RNA was isolated from L132 cells, 8 h after exposure to FKBP-L antisense (FKBP-L antisense: 5′ ATG GCC AGG CTC CCG CTC 3′) (SEQ ID NO: 40) or lipofectin only as a control. Poly A+mRNA was extracted from total RNA samples using the Qiagen Oligotex kit (Qiagen, UK), according to the manufacturer's instructions. These mRNA samples (800 ng per sample) were sent to Incyte Genomics, USA where a UniGEM 2.0 microarray analysis was conducted.
# Incyte's Lifearray chips enable the interrogation of up to 10,000 genes simultaneously, resulting in the comparison of gene expression levels in two different samples. Briefly, a standard reverse transcription reaction was carried out to convert both mRNA samples to cyanine-dye-labelled cDNA. mRNA from L132 cells treated with FKBP-L antisense oligonucleotides after 8 h was used to generate a Cyanine 3 (green) labelled probe and mRNA from L132 cells treated with lipofectin only after 8 hours was used to produce a Cyanine 5 (red) labelled probe. The two fluorescent probe samples were simultaneously applied to a single microarray chip containing numerous cDNA probes immobilised on a solid support in specific locations, where they competitively reacted with the arrayed cDNA molecules. Following incubation, the microarray was rinsed in a series of baths to ensure the removal of any unhybridised sample. The microarray was then captured as an image that was acquired using a scanner for fluorescent signal detection. This scanner generated data on the intensity of each spot by excitation of the fluorochromes on the array. Each element of the chip was scanned for the Cy3 (green) and then the Cy5 (red) fluorescent label to create electronic images for both dye channels. The final array images were analysed using the Incyte GEMTools software package.
# [3] = test system: DU145 human prostate tumor xenograft; assay: prostate cancer xenograft model, intratumoral injection of plasmid complexes; format: in vivo, severe combined immunodeficient mice; settings: twice weekly
# Procedure: Du145 (prostate carcinoma) cells were obtained from Cancer Research UK and cultured in RPMI 1640 medium (Invitrogen) supplemented with 10% foetal calf serum. All cell lines were grown as monolayers, incubated at 37° C. under 5% CO2.
# The FKBP-L/pcDNA3.1 plasmid was constructed by excision of the FKBPL cDNA using BamH1 (polynucleotide SEQ ID NO:31) from pUC18 and then directional ligation of FKBP-L into the BamHI restriction site of pcDNA3.1 (Invitrogen) as described in Example 1. The endostatin plasmid (for use as a postive anti-angiogenic control) hEndo XV/pcDNA3.1, was constructed by digesting the pBLAST hENDO XV plasmid (InVivoGen) with Hpa1 (Promega) and EcoV (Invitrogen) to release the hEndo XV insert. The hEndo XV insert was ligated directionally into the ECoRV restriction site of pcDNA3.1 (Invitrogen).
# Nineteen (19) male immunocompromised (severe combined immunodeficient) mice were used (Harlan). The mice were aclimatized and caged in groups of 5 or less in a barrier care facility. Du145 (prostate carcinoma) cells were cultured as previously described. Subconfluent cells were harvested and the cell concentration was adjusted to 5×10^7 cells/ml in PBS. The dorsum of each mouse was shaved. […] The tumors were measured before each treatment. Tumor volume was calculated as: 4/3 πr^3 (where r=½ GMP and GMP=^3√{square root over (Length×Breadth×Height)}).
# [4] = test system: rat aortic ring; format: cell-based, Male Wistar rats
# Procedure: Male Wistar rats were euthanised and the thoracic aorta was aseptically removed and sectioned into 1 cm thick rings. The rings were washed ten times in sterile medium to remove any bacteria and embedded into Matrigel on 24 well plates. The wells were supplemented with 2 ml of medium and increasing concentrations of full-length His-tagged recombinant FKBP-L protein (SEQ ID 1). The plate was incubated for 8 days and post incubation the Matrigel and rings were fixed in 4% PBS buffered paraformaldehyde and stored in PBS. The extent of vessel development was blindly assessed microscopically by an independent investigator and quantified using a calibrated eyepiece graticule (1 mm/100 μm graduation) at 20× magnification (Olympus BX 50). The extent of vessel length, maximum vessel length and number of vessels in each field of view was measured and compared to time matched sham controls and the percent (%) inhibition calculated. Male Wistar rats were euthanised and the thoracic aorta was aseptically removed and sectioned into 1 cm thick rings. The rings were washed ten times in sterile medium to remove any bacteria and embedded into Matrigel on 24 well plates. The wells were supplemented with 2 ml of medium and increasing concentrations of FKBP-L 24mer (SEQ ID NO: 10) and FKBP-L 1-57mer (SEQ ID NO: 6) and recombinant FKBP-L (SEQ ID NO:1). The plate was blindly assessed by an independent investigator and quantified using a calibrated eyepiece graticule (1 mm/100 μm graduation) at 20× magnification (Olympus BX 50). The extent of vessel length, maximum vessel length and number of vessels in each field of view was measured and compared to time matched sham controls and the % inhibition calculated. In order to determine whether the FKBP-L 24mer exerted a permanent or static effect on endothelial cell sprouting the rat aortic ring assay was used. Male Wistar rats were euthanised and the thoracic aorta was aseptically removed and sectioned into 1 cm thick rings. The rings were washed ten times in sterile medium to remove any bacteria and embedded into Matrigel on 24 well plates. The wells were supplemented with 2 ml of medium. The plates were incubated for up to 15 days. Each day the Matrigel rings were photographed and returned to their incubator. Two further experiments were carried out: (A) addition of FKBP-L 24mer to the medium after the vessels had grown for seven days; and (B) addition of FKBP-L 24mer to the medium at the initial embedding stage, with subsequent removal after seven days and replacement with fresh medium for a further seven days. The extent of vessel development was quantified using a calibrated eyepiece graticule (1 mm/100 μm graduation) at 20× magnification (Olympus BX 50), and measured electronically using Lucia imaging software. Vessel length was measured and compared to time matched sham controls and the percent (%) inhibition calculated.
# [5] = test system: HMEC-1; format: cell-based, Human; settings: 18 h
# Procedure: (§2) The in vitro tubule formation assay used in these studies is a modified version of the method described by Ashton et al (1999). In brief, assays were conducted using BD BioCoat™ Matrigel™ Matrix Thin Layer 24-well Multiwell Plates (BD Discovery Labware, Oxford, UK). The Matrigel™ was rehydrated with 500 μl MCDB-131 serum free medium and incubated at 37° C. for 30 minutes. Excess medium was removed and HMEC-1 were seeded at a density of 1×10^5 and the plates incubated at 37° C. under 5% CO2/95% air for 1 hour.
# (§3) Increasing concentrations of the recombinant FKBP-L protein (SEQ ID NO: 1) were added to each individual well in triplicate (250-1000 ngml^−1) and the plate was incubated for a further 18 hours. The degree of tubule formation between adjacent HMEC-1 cells was assessed in each well in five fields of view, by counting the number of cell to cell contacts between different HMEC-1 cells in the designated area. An independent investigator assessed each well and the FKBP-L treated wells were compared to sham treated controls.
# as §2, with “al.” for “al”, “min.” for “minutes.”, “h. Increasing concentrations of FKBP-L 24mer (SEQ ID NO: 10) and 1-57mer (SEQ ID NO: 6) from 10^−14-10^−6 M were used.” for “hour.”
# as §3, with “The” for “Increasing concentrations of the recombinant FKBP-L protein (SEQ ID NO: 1) were added to each individual well in triplicate (250-1000 ngml^−1) and the”, “h.” for “hours.”
# [6] = test system: HMEC-1 cells; assay: MTT assay of cell viability/proliferation; settings: 24mer 10^−5-10^−10M, 1-57mer 10^−9M and 10^−10M; 24 hours and 48 hours
# Procedure: An MTT assay was used to measure cell viability/proliferation.
# An MTT assay was used to measure cell viability and/or proliferation. Briefly, HMEC-1 cells were seeded (2.5×10^3) in 96 well plates and allowed to attach for 5 h. The cells were treated with FKBP-L 24mer (SEQ ID NO: 10) (10^−5-10^−10M), 1-57mer (SEQ ID NO: 6) (10^−9M and 10^−10M) or medium (control).
# Post incubation the cells were exposed to a 5 mgml^−1 solution of 3-(-4,5-dimethylthiazol-2-yl) 2,5 diphenyl tetrazolium (MTT) for 4 h. The cells were aspirated and 200 μl of DMSO added to reduce the salt and induce a colour change.
substance,measurement,setting,value
RQQPRDPPTETLELEVSPD-OH (listed as Homo sapiens) [Pep 12],activity relative to the FKBP-L 24mer,[1]; 24 h,about the same as the FKBP-L 24mer
"5′ ATG GCC AGG CTC CCG CTC 3′ (antisense ATGGCCAGGCTCCCGCTC; listed as DNA, chemistry not given here; listed as Homo sapiens) [FKBP-L anti-sense oligonucleotides]",Fold Increase (↑) or Decrease (↓): Annexin 2,[2]; decrease ↓,↓ 1.6 Fold
same,Fold Increase (↑) or Decrease (↓): CYR61,[2]; decrease ↓,↓ 2.4 Fold
same,Fold Increase (↑) or Decrease (↓): Tubulin α,[2]; decrease ↓,↓ 1.5 Fold
same,Fold Increase (↑) or Decrease (↓): Tubulin β,[2]; decrease ↓,↓ 1.5 Fold
same,Fold Increase (↑) or Decrease (↓): Tubulin γ,[2]; decrease ↓,↓ 1.6 Fold
same,Fold Increase (↑) or Decrease (↓): MMP-like 1,[2]; increase ↑,↑ 1.5 Fold
same,Fold Increase (↑) or Decrease (↓): Microtubule associated protein 1B,[2]; increase ↑,↑ 1.6 Fold
same,Fold Increase (↑) or Decrease (↓): PI3K,[2]; increase ↑,↑ 3.1 Fold
same,Fold Increase (↑) or Decrease (↓): ROCK,[2]; increase ↑,↑ 1.6 Fold
same,Fold Increase (↑) or Decrease (↓): Rho GTPase activating protein-,[2]; increase ↑,↑ 2.0 Fold
same,Fold Increase (↑) or Decrease (↓): oligophrenin 1,[2]; increase ↑,↑ 1.7 Fold
endostatin,tumor appearance,[3],evidence of a necrotic center
METPPVNTIGEKDTSQPQQEWEKNLRENLDSVIQIRQQPRDPPTETLELEVSPDPAS [FKBP-L 1-57mer],potency compared with the full length recombinant protein on a mole/mole basis,[1]; 7 h,increased potency
same,IC50,[4],0.53 nM
same,EC50,[5],0.7 pM
same,effect on proliferation of HMEC-1 cells compared to time-matched controls,[6],neither of the peptides had any significant effect
